# According to US8980926B2, “2-aminoindole compounds and methods for the treatment of malaria” (Genzyme Corporation, priority 2009, dated 2015):
# Tested on: P. falciparum strain 3D7
# Test: In vitro potency against P. falciparum strain 3D7 (SYBR green/DAPI)
# Format: cell-based
# Details: Plasmodium falciparum, reductions in parasitemia, read-out: IC50 values
row,Compound,IC50 [nM]
1,Cn1cc(F)c2c(C3(O)C(N)=Nc4ccc(Cl)cc43)cccc21 (centres unmarked) [Compound 226],100 to 500
2,CCOc1nc(Cl)ccc1C1(O)C(N)=Nc2ccc(C)cc21 (centres unmarked) [Compound 64],5000 to 15000
3,NC1=Nc2ccc(Cl)cc2C1(O)c1ccccc1OC1CCC1 (centres unmarked) [Compound 151],1 to 100
4,NC1=Nc2ccccc2C1(O)c1cccc2ccccc12 (centres unmarked) [Compound 10],1 to 100
5,NC1=Nc2ccc(F)cc2C1(O)c1ccccc1 (centres unmarked) [Compound 36],100 to 500
6,NC1=Nc2ccc(Cl)cc2C1(O)c1cccc(C(F)(F)F)c1 (centres unmarked) [Compound 14],100 to 500
7,COc1ccccc1C1(O)C(N)=Nc2ccc(Br)cc21 (centres unmarked) [Compound 123],1 to 100
8,NC1=Nc2ccc(Cl)cc2C1(O)c1cccc2ncccc12 (centres unmarked) [Compound 59],100 to 500
9,COc1ccc2c(c1)C(O)(c1cc(F)ccc1N1CCOCC1)C(N)=N2 (centres unmarked) [Compound 179],100 to 500
10,COc1ccc2c(c1)C(O)(c1cc3ccccc3s1)C(N)=N2 (centres unmarked) [Compound 153],1 to 100
11,Cc1ccc2c(c1)C(O)(c1cccc3ccccc13)C(N)=N2 (centres unmarked) [Compound 257],1 to 100
12,CCOc1cnc(Cl)cc1C1(O)C(N)=Nc2ccc(Cl)cc21 (centres unmarked) [Compound 224],1 to 100
13,COc1cnc(F)c(C2(O)C(N)=Nc3ccc(Cl)cc32)c1 (centres unmarked) [Compound 207],100 to 500
14,NC1=Nc2cc(Cl)ccc2C1(O)c1ccccc1 (centres unmarked) [Compound 34],500 to 1000
15,CCOc1ncc(Cl)cc1C1(O)C(N)=Nc2ccc(Cl)cc21 (centres unmarked) [Compound 242],1 to 100
16,Cn1ccc2cc(F)cc(C3(O)C(N)=Nc4ccc(Cl)cc43)c21 (centres unmarked) [Compound 272],100 to 500
17,CCOc1cc(Cl)ccc1C1(O)C(N)=Nc2ccc(Cl)cc21 (centres unmarked) [Compound 259],1 to 100
18,CC(C)(C)c1ccc(C2(O)C(N)=Nc3ccc(Cl)cc32)cc1 (centres unmarked) [Compound 18],100 to 500
19,NC1=Nc2ccc(Cl)cc2C1(O)c1ccccc1N1CCSCC1 (centres unmarked) [Compound 214],1 to 100
20,NC1=Nc2cc(Cl)c(Cl)cc2C1(O)c1ccccc1 (centres unmarked) [Compound 51],500 to 1000
21,N#Cc1ccc2c(c1)C(O)(c1ccccc1)C(N)=N2 (centres unmarked) [Compound 88],1000 to 5000
22,COc1ccc(C2(O)C(N)=Nc3ccc(Cl)cc32)c2ccccc12 (centres unmarked) [Compound 78],1 to 100
23,CC(C)(C)Sc1ccccc1C1(O)C(N)=Nc2ccc(Cl)cc21 (centres unmarked) [Compound 193],1 to 100
24,NC1=Nc2ccc(Cl)cc2C1(O)c1cc(Cl)ccc1OC1CC1 (centres unmarked) [Compound 219],1 to 100
25,Cc1cc(C)cc(C2(O)C(N)=Nc3ccc(Cl)cc32)c1 (centres unmarked) [Compound 112],100 to 500

row,Compound,IC50 [nM]
1,Cc1ccc2c(c1)C(O)(c1cc(Cl)cc3ccccc13)C(N)=N2 (centres unmarked) [Compound 273],1 to 100
2,NC1=Nc2cccc(Cl)c2C1(O)c1ccccc1 (centres unmarked) [Compound 33],100 to 500
3,NC1Nc2ccc(-c3nccs3)cc2C1(O)c1ccccc1 (centres unmarked) [Compound 105],100 to 500
4,CSc1ccc(F)c(C2(O)C(N)=Nc3ccc(Cl)cc32)c1 (centres unmarked) [Compound 204],1 to 100
5,CC1(O)C(N)=Nc2ccccc21 (centres unmarked) [Compound 9],1000 to 5000
6,Cc1ccc(C2(O)C(N)=Nc3ccc(Cl)cc32)c(C)c1 (centres unmarked) [Compound 90],100 to 500
7,NC1=Nc2ccc(Br)cc2C1(O)c1ccccc1 (centres unmarked) [Compound 41],1 to 100
8,NC1=Nc2ccc(Cl)cc2C1(O)c1ccccc1-c1ccccc1Cl (centres unmarked) [Compound 114],100 to 500
9,CC(C)Oc1ccc2c(c1)C(O)(c1ccccc1)C(N)=N2 (centres unmarked) [Compound 76],100 to 500
10,NC1=Nc2ncccc2C1(O)c1ccccc1 (centres unmarked) [Compound 66],5000 to 15000
11,CC(=O)Nc1ccccc1C1(O)C(N)=Nc2ccc(Cl)cc21 (centres unmarked) [Compound 103],5000 to 15000
12,NC1=Nc2ccc(Cl)cc2C1(O)c1cc(F)ccc1C1CC1 (centres unmarked) [Compound 200],1 to 100
13,CC(C)CC1(O)C(N)=Nc2ccc(Cl)cc21 (centres unmarked) [Compound 54],100 to 500
14,CCOc1ccc(OC)cc1C1(O)C(N)=Nc2ccc(Cl)cc21 (centres unmarked) [Compound 147],1 to 100
15,CC(C)C1(O)C(N)=Nc2cc(Cl)ccc21 (centres unmarked) [Compound 230],100 to 500
16,NC1=Nc2ccc(Cl)cc2C1(O)c1cccc2cnccc12 (centres unmarked) [Compound 81],100 to 500
17,Cc1cccc(C2(O)C(N)=Nc3ccc(Cl)cc32)c1C (centres unmarked) [Compound 84],100 to 500
18,CC(C)(C)Oc1ccccc1C1(O)C(N)=Nc2ccc(Cl)cc21 (centres unmarked) [Compound 248],1 to 100
19,COc1ccc(SC(C)C)c(C2(O)C(N)=Nc3ccc(Cl)cc32)c1 (centres unmarked) [Compound 190],1 to 100
20,COc1ccc(C#Cc2ccc3c(c2)C(O)(c2ccccc2)C(N)=N3)cc1 (centres unmarked) [Compound 104],100 to 500
21,NC1=Nc2ccc(Cl)cc2C1(O)c1ccccc1SC1CCC1 (centres unmarked) [Compound 187],1 to 100
22,CC(C)C1(O)C(N)=Nc2cccc(Cl)c21 (centres unmarked) [Compound 227],100 to 500
23,CCCCc1ccc2c(c1)C(O)(c1ccccc1)C(N)=N2 (centres unmarked) [Compound 48],500 to 1000
24,NC1=Nc2ccc(Cl)cc2C1(O)c1ccc(N2CCOCC2)cc1 (centres unmarked) [Compound 17],500 to 1000
25,NC1=Nc2ccc(Cl)cc2C1(O)c1ccc(F)cc1 (centres unmarked) [Compound 83],100 to 500
